# Data reported in US8030300B2, “Ligands for nicotinic acetylcholine receptors, and methods of making and using them” (priority 2003, dated 2011).
# Where two headings read alike, the source gives them in different places.
# What was measured:
# Test in all cases: biochemical
# Assay type in all cases: binding
# α2β2 nAChR subtype = target: T1, α2β2 nAChR subtype (Rattus norvegicus, UniProt P12389+P12390)
# T1 construct: expressed in transfected cells
# Text: (§1) In order to assess the steric and hydropathic effects of the C-5 substituents of the pyridine on the binding affinity and subtype-selectivity at neuronal nicotinic acetylcholine receptors. […] The binding affinity ratios for a ligand, calculated from its affinities at an α subunit paired with either the β2 osubunit or the β4 subunit, represents a measure of the selectivity of that ligand with regard to the β subunits.
# α2β4 nAChR subtype = target: T2, α2β4 nAChR subtype (Rattus norvegicus, UniProt P12389+P12392)
# T2 construct: expressed in transfected cells
# T2 sequence (P12389 28-511): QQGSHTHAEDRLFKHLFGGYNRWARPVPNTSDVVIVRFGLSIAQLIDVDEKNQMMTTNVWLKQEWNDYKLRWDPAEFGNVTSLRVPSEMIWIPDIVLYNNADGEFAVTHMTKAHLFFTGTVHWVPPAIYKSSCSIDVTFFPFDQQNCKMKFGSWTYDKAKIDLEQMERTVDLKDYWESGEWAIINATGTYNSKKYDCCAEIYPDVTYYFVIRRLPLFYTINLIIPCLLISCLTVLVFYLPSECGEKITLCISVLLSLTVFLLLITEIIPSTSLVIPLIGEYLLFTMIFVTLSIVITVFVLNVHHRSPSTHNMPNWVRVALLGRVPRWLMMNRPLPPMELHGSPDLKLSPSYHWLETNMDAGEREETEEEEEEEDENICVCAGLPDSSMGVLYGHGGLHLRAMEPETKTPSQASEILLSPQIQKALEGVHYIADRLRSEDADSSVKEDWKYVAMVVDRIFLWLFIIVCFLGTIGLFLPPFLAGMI
# T2 sequence (P12392 21-495): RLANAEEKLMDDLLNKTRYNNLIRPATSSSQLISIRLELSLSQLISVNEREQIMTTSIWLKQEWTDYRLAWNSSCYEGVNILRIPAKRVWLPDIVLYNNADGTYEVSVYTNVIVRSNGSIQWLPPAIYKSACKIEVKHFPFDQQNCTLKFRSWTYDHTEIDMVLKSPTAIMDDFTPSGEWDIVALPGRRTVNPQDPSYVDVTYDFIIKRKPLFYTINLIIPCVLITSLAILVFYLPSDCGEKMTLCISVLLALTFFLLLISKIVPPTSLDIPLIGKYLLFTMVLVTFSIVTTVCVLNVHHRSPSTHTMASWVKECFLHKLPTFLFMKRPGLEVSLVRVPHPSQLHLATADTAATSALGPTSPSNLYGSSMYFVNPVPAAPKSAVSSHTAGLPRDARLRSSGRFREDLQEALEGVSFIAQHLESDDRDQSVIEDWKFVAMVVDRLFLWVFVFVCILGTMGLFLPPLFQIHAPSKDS
# Text: as §1
# α3β2 nAChR subtype = target: T3, α3β2 nAChR subtype (Rattus norvegicus, UniProt P04757+P12390)
# T3 construct: expressed in transfected cells
# T3 sequence (P12390 25-500): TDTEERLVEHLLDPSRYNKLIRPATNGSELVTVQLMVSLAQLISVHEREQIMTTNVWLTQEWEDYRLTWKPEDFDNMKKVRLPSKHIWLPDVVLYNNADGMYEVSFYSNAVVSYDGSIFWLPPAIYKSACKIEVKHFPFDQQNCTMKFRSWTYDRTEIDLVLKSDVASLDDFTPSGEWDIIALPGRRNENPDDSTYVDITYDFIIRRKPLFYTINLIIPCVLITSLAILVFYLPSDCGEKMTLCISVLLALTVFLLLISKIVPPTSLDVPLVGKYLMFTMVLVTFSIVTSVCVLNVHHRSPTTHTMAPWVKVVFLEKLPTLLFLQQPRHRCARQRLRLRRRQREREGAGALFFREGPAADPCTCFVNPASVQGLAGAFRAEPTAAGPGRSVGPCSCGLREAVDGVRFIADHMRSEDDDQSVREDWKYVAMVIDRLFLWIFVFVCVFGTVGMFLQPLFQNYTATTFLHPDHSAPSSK
# T3 sequence (P04757 26-499): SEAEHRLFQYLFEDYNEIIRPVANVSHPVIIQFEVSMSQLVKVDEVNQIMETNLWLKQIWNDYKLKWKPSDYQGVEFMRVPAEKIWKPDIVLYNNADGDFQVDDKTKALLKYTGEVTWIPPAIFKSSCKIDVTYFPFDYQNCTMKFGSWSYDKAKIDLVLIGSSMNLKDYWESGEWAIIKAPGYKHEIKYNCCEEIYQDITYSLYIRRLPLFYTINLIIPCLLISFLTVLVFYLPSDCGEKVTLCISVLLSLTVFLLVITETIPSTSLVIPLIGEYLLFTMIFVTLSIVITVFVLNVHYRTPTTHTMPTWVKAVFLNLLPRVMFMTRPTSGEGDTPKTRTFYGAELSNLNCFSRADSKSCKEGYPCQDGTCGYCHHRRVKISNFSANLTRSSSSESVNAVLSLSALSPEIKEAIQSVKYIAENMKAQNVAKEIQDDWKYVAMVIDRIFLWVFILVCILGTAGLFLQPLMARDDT
# Text: as §1
# α3β4 nAChR subtype = target: T4, α3β4 nAChR subtype (Rattus norvegicus, UniProt P04757+P12392)
# T4 construct: expressed in transfected cells
# T4 sequence (P04757 26-499): as above
# T4 sequence (P12392 21-495): as the sequence (P12392 21-495) above
# Text: as §1
# α4β2 nAChR subtype = target: T5, α4β2 nAChR subtype (Rattus norvegicus, UniProt P09483+P12390)
# T5 construct: expressed in transfected cells
# T5 sequence (P12390 25-500): as the sequence (P12390 25-500) above
# T5 sequence (P09483 31-630): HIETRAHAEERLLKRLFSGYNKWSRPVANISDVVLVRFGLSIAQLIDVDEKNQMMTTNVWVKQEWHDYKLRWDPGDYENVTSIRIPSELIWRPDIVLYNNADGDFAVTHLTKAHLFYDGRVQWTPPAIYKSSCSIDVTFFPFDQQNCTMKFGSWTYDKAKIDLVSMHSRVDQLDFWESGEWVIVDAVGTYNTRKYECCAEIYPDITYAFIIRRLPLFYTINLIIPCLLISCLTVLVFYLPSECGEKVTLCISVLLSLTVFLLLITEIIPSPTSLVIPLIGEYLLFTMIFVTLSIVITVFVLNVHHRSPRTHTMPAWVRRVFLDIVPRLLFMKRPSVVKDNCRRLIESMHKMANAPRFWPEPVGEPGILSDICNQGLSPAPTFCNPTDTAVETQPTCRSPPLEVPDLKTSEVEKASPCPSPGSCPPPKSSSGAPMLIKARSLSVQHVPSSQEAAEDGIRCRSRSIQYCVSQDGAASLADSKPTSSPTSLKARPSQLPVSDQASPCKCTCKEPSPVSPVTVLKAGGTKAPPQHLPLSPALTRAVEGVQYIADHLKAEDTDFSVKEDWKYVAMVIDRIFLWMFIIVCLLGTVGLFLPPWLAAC
# Text: as §1
# α4β4 nAChR subtype = target: T6, α4β4 nAChR subtype (Rattus norvegicus, UniProt P09483+P12392)
# T6 construct: expressed in transfected cells
# T6 sequence (P12392 21-495): as the sequence (P12392 21-495) above
# T6 sequence (P09483 31-630): as the sequence (P09483 31-630) above
# Text: as §1
# [1] = target: T7, receptors in rat forebrain (mainly α4β2) (Rattus norvegicus, UniProt P09483+P12390)
# T7 construct: from tissue; host or cells: rat forebrain homogenate
# T7 sequence (P09483 31-630): as above
# T7 sequence (P12390 25-500): as the sequence (P12390 25-500) above
# Text: as §1
# In Vitro Inhibition of ^3H-Epibatidin Binding
# The high affinity binding site for ^3H-epibatidin is most certainly binding to the α4β2 subtype of nicotinic receptors. The identity of the low affinity site is still believed to be unknown.
# Tissue preparation: Preparations may be performed at 0-4° C. unless otherwise indicated. […] The tissue suspension may then be centrifuged at 27,000×g for 10 min. The supernatant is then discarded and the pellet may then be washed three times by centrifugation at 27,000×g for 10 min in 20 mL fresh buffer, and the final pellet may be resuspended in fresh buffer (400 mL per g of original tissue) and used for binding assays.
# Assay: Aliquots of 2.0 mL homogenate may be added to 0.100 mL of test solution and 0.100 mL of ^3H-epibatidin (0.3 nM, final concentration), mixed and incubated for 60 min at room temperature. […] The amount of radioactivity on the filters may be determined by conventional liquid scintillation counting. Specific binding is total binding minus non-specific binding.
# [2] = Table 3, mean ± SEM of 3 (nicotine, 1: 3 to 6) independent measurements, read-out: Ki α2β2
# [3] = Table 5, rat nAChR subtypes, read-out: Ki α2β2
# [4] = Table 3, mean ± SEM of 3 (nicotine, 1: 3 to 6) independent measurements, read-out: Ki α2β4
# [5] = Table 5, rat nAChR subtypes, read-out: Ki α2β4
# [6] = Ki α3β2, Table 5, rat nAChR subtypes
# [7] = Table 3, mean ± SEM of 3 (nicotine, 1: 3 to 6) independent measurements, read-out: Ki α3β2
# [8] = Table 3, mean ± SEM of 3 (nicotine, 1: 3 to 6) independent measurements, read-out: Ki α3β4
# [9] = Table 5, rat nAChR subtypes, read-out: Ki α3β4
# [10] = Ki α4β2, Table 5, rat nAChR subtypes
# [11] = Table 3, mean ± SEM of 3 (nicotine, 1: 3 to 6) independent measurements, read-out: Ki α4β2
# [12] = Ki α4β4, Table 5, rat nAChR subtypes
# [13] = Table 3, mean ± SEM of 3 (nicotine, 1: 3 to 6) independent measurements, read-out: Ki α4β4
# [14] = Ki α4β2*, Table 5, *Rat forebrain, mainly α4β2
# [15] = Ki α2β2, Table 5, rat nAChR subtypes
# [16] = Ki α2β4, Table 5, rat nAChR subtypes
# [17] = Ki α3β4, Table 5, rat nAChR subtypes
# [18] = Table 5, rat nAChR subtypes, read-out: Ki α3β2
# [19] = Table 5, rat nAChR subtypes, read-out: Ki α4β2
# [20] = Table 5, rat nAChR subtypes, read-out: Ki α4β4
# [21] = Table 5, *Rat forebrain, mainly α4β2, read-out: Ki α4β2*
# T1 sequence (P12390 25-500): as above
# T1 sequence (P12389 28-511): as the sequence (P12389 28-511) above
molecule,measurement,setting,value
O=c1cccc2n1C[C@H]1C[C@@H]2CN(CCCCCN2C[C@@H]3C[C@H](C2)c2cccc(=O)n2C3)C1 [ZW-19],Ki,α2β2 nAChR subtype,240 nM
same,Ki,α2β4 nAChR subtype,1430 nM
same,Ki,α3β2 nAChR subtype,> 1000 nM
same,Ki,α3β4 nAChR subtype,> 10000 nM
same,Ki,α4β2 nAChR subtype,383 nM
same,Ki,α4β4 nAChR subtype,468 nM
same,Ki,[1],603 nM
Clc1ccc2c(n1)CCC1C3CCC(N3)C21 (centres unmarked) [Ligand 37b],Ki,α2β2 nAChR subtype; [2],59 nM
same,Ki,α2β2 nAChR subtype; [3],59.4 nM
same,Ki,α2β4 nAChR subtype; [4],32 nM
same,Ki,α2β4 nAChR subtype; [5],32.2 nM
same,Ki,α3β2 nAChR subtype; [6],541 nM
same,Ki,α3β2 nAChR subtype; [7],530 nM
same,Ki,α3β4 nAChR subtype; [8],201 nM
same,Ki,α3β4 nAChR subtype; [9],201 nM
same,Ki,α4β2 nAChR subtype; [10],210 nM
same,Ki,α4β2 nAChR subtype; [11],295 nM
same,Ki,α4β4 nAChR subtype; [12],39.8 nM
same,Ki,α4β4 nAChR subtype; [13],41 nM
same,Ki,[1]; [14],576 nM
"FCCCCC#Cc1cncc(OC[C@@H]2CCCN2)c1 [Ligand 42, 5-(6-Fluoro-1-hexynyl)-3-(2(S)-pyrrolidinylmethoxy)pyridine]",Ki,α2β2 nAChR subtype; [15],3.5 nM
same,Ki,α2β4 nAChR subtype; [16],680 nM
same,Ki,α3β2 nAChR subtype; [6],5.27 nM
same,Ki,α3β4 nAChR subtype; [17],7580 nM
same,Ki,α4β2 nAChR subtype; [10],0.907 nM
same,Ki,α4β4 nAChR subtype; [12],721 nM
same,Ki,[1]; [14],3.45 nM
CN1CCC[C@H]1COc1cncc(C#CCNC(=O)OC(C)(C)C)c1 [Ligand 13],Ki,α2β2 nAChR subtype,1.19 nM
same,Ki,α2β4 nAChR subtype,8240 nM
same,Ki,α3β2 nAChR subtype,7.27 nM
same,Ki,α3β4 nAChR subtype,59900 nM
same,Ki,α4β2 nAChR subtype,2.07 nM
same,Ki,α4β4 nAChR subtype,8280 nM
same,Ki,[1],3.71 nM
"Decane-1,3-N,N′-bisepibatidine [Ligand 59d]",Ki,α2β2 nAChR subtype; [3],5.78 nM
same,Ki,α2β4 nAChR subtype; [5],24.2 nM
same,Ki,α3β2 nAChR subtype; [18],6.75 nM
same,Ki,α3β4 nAChR subtype; [9],67.7 nM
same,Ki,α4β2 nAChR subtype; [19],10.3 nM
same,Ki,α4β4 nAChR subtype; [20],18.7 nM
same,Ki,[1]; [21],13.9 nM
"CN1CCC[C@H]1COc1cncc(C#CCNC(=O)OC(C)(C)C)c1 [Ligand 13, 5-(3-tert-Butoxycarbonylamino-1-propynyl)-3-(1-methyl-2(S)-pyrrolidinylmethoxy)pyridine]",Ki,"α2β2 nAChR subtype; read-out: Ki α2β2, Table 5, rat nAChR subtypes",1.19 nM
same,Ki,"α2β4 nAChR subtype; read-out: Ki α2β4, Table 5, rat nAChR subtypes",8240 nM
same,Ki,"α3β2 nAChR subtype; read-out: Ki α3β2, Table 5, rat nAChR subtypes",7.27 nM
same,Ki,"α3β4 nAChR subtype; read-out: Ki α3β4, Table 5, rat nAChR subtypes",59900 nM
same,Ki,"α4β2 nAChR subtype; read-out: Ki α4β2, Table 5, rat nAChR subtypes",2.07 nM
same,Ki,"α4β4 nAChR subtype; read-out: Ki α4β4, Table 5, rat nAChR subtypes",8280 nM
same,Ki,"[1]; read-out: Ki α4β2*, Table 5, *Rat forebrain, mainly α4β2",3.71 nM
"CCCCC#Cc1cncc(OC[C@@H]2CCCN2C)c1 [Ligand 12, 5-(1-Hexynyl)-3-(1-methyl-2(S)-pyrrolidinylmethoxy)pyridine]",Ki,α2β2 nAChR subtype; [3],13.4 nM
same,Ki,α2β4 nAChR subtype; [5],1720 nM
same,Ki,α3β2 nAChR subtype; [18],20.3 nM
same,Ki,α3β4 nAChR subtype; [9],9560 nM
same,Ki,α4β2 nAChR subtype; [19],2.61 nM
same,Ki,α4β4 nAChR subtype; [20],1410 nM
same,Ki,[1]; [21],6.81 nM
Clc1cc2c(cn1)C1C3CCC(N3)C1CC2 (centres unmarked) [Ligand 37a],Ki,α2β2 nAChR subtype; [15],294 nM
same,Ki,α2β2 nAChR subtype; [2],290 nM
same,Ki,α2β4 nAChR subtype; [16],693 nM
same,Ki,α2β4 nAChR subtype; [4],717 nM
same,Ki,α3β2 nAChR subtype; [6],345 nM
same,Ki,α3β2 nAChR subtype; [7],354 nM
same,Ki,α3β4 nAChR subtype; [17],2170 nM
same,Ki,α3β4 nAChR subtype; [8],2280 nM
same,Ki,α4β2 nAChR subtype; [10],67.4 nM
same,Ki,α4β2 nAChR subtype; [11],73 nM
same,Ki,α4β4 nAChR subtype; [12],672 nM
same,Ki,α4β4 nAChR subtype; [13],637 nM
same,Ki,[1]; [14],339 nM
"FC1CC2NC1CC2c1ccc(Cl)nc1 (stereo not drawn) [Ligand 10, 2-exo-(2-Chloro-5-pyridyl)-5-exo-fluoro-7-azabicyclo[2.2.1]heptane]",Ki,α2β2 nAChR subtype; [15],0.864 nM
same,Ki,α2β4 nAChR subtype; [16],5.59 nM
same,Ki,α3β2 nAChR subtype; [6],0.646 nM
same,Ki,α3β4 nAChR subtype; [17],10.4 nM
same,Ki,α4β2 nAChR subtype; [10],1.73 nM
same,Ki,α4β4 nAChR subtype; [12],1.23 nM
same,Ki,[1]; [14],2.11 nM
"OC1CC2NC1CC2c1ccc(Cl)nc1 (stereo not drawn) [Ligand 7, 2-exo-(2-Chloro-5-pyridyl)-5-endo-hydroxyl-7-azabicyclo[2.2.1]heptane]",Ki,α2β2 nAChR subtype; [15],93.7 nM
same,Ki,α2β4 nAChR subtype; [16],238 nM
same,Ki,α3β2 nAChR subtype; [6],285 nM
same,Ki,α3β4 nAChR subtype; [17],916 nM
same,Ki,α4β2 nAChR subtype; [10],70.9 nM
same,Ki,α4β4 nAChR subtype; [12],247 nM
same,Ki,[1]; [14],134 nM
CN1CCC[C@H]1COc1cncc(C#CCCCCO)c1 [Ligand 16],Ki,α2β2 nAChR subtype,2.87 nM
same,Ki,α2β4 nAChR subtype,3230 nM
same,Ki,α3β2 nAChR subtype,12.6 nM
same,Ki,α3β4 nAChR subtype,40200 nM
same,Ki,α4β2 nAChR subtype,0.81 nM
same,Ki,α4β4 nAChR subtype,1270 nM
same,Ki,[1],3.56 nM
